Each structure is given as a SMILES string.

For this assay, the target named is ER (Homo sapiens (Human), UniProt P03372). Description: Western blot analysis (Compounds B1-B278). The class given is cell-based. The following applies: ER degradation by traditional Western blot; DC50 classes. In a few lines: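 Compound-treated cells were lysed in RIPA buffer (Tris.HCl pH 7.6, 1% NP-40, deoxycholate, 0.1% SDS) with protease inhibitors; equal protein was resolved on 10% SDS-PAGE, transferred to PVDF and immunoblotted. Band intensities were quantified and normalized to GAPDH.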
Sequence of ER (P03372 whole entry): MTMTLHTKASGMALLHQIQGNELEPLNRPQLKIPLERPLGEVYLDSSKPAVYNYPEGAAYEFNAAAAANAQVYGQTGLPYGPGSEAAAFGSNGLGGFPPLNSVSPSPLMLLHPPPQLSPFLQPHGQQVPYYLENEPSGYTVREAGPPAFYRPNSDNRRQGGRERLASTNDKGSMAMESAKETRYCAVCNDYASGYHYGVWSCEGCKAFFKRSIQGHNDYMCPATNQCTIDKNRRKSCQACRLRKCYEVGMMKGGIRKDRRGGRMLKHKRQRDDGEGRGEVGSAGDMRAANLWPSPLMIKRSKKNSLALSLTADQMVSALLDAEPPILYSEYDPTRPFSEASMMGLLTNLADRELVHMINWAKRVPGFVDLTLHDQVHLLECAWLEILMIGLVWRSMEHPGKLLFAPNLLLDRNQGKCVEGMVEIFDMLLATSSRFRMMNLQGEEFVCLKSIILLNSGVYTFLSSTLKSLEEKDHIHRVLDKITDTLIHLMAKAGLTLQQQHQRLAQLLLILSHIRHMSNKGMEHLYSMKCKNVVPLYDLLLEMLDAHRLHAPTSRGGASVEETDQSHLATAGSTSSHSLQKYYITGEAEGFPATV
For the compound `C[C@@H]1Cc2c([nH]c3ccccc23)[C@@H](c2cnc(N3CCC(C(=O)N4CCC(N5Cc6cc7c(cc6C5)C(=O)N(C5CCC(=O)NC5=O)C7=O)CC4)CC3)nc2)N1CC(F)(F)F` (stereo partly drawn) [Compound B219, 2-(2,6-dioxopiperidin-3-yl)-6-(1-(1-(5-((1R,3R)-3-methyl-2-(2,2,2-trifluoroethyl)-2,3,4,9-tetrahydro-1H-pyrido[3,4-b]indol-1-yl)pyrimidin-2-yl)piperidine-4-carbonyl)piperidin-4-yl)-6,7-dihydropyrrolo[3,4-f]isoindole-1,3(2H,5H)-dione], the “Traditional Western Degradation Potency” value was “A (“A”: <10 nM)”.
The entry for `C[C@@H]1Cc2c([nH]c3ccccc23)[C@@H](c2cnc(N3CCC4(CCN(C(=O)CN5Cc6cc7c(cc6C5)C(=O)N(C5CCC(=O)NC5=O)C7=O)CC4)CC3)nc2)N1CC(F)F` (stereo partly drawn) [Compound B220, 6-(2-(9-(5-((1R,3R)-2-(2,2-difluoroethyl)-3-methyl-2,3,4,9-tetrahydro-1H-pyrido[3,4-b]indol-1-yl)pyrimidin-2-yl)-3,9-diazaspiro[5.5]undecan-3-yl)-2-oxoethyl)-2-(2,6-dioxopiperidin-3-yl)-6,7-dihydropyrrolo[3,4-f]isoindole-1,3(2H,5H)-dione] is “A (“A”: <10 nM)”; for `C[C@@H]1Cc2c([nH]c3ccccc23)[C@@H](c2cnc(N3CCC4(CC3)CN(C(=O)CN3Cc5cc6c(cc5C3)C(=O)N(C3CCC(=O)NC3=O)C6=O)C4)nc2)N1CC(F)F` (stereo partly drawn) [Compound B221, 6-(2-(7-(5-((1R,3R)-2-(2,2-difluoroethyl)-3-methyl-2,3,4,9-tetrahydro-1H-pyrido[3,4-b]indol-1-yl)pyrimidin-2-yl)-2,7-diazaspiro[3.5]nonan-2-yl)-2-oxoethyl)-2-(2,6-dioxopiperidin-3-yl)-6,7-dihydropyrrolo[3,4-f]isoindole-1,3(2H,5H)-dione] it is “A (“A”: <10 nM)”; for `C[C@@H]1Cc2c([nH]c3ccccc23)[C@@H](c2cnc(N3CCC(C(=O)N4CCC(N5Cc6cc7c(cc6C5)C(=O)N(C5CCC(=O)NC5=O)C7=O)CC4)CC3)nc2)N1CC(F)F` (stereo partly drawn) [Compound B222, 6-(1-(1-(5-((1R,3R)-2-(2,2-difluoroethyl)-3-methyl-2,3,4,9-tetrahydro-1H-pyrido[3,4-b]indol-1-yl)pyrimidin-2-yl)piperidine-4-carbonyl)piperidin-4-yl)-2-(2,6-dioxopiperidin-3-yl)-6,7-dihydropyrrolo[3,4-f]isoindole-1,3(2H,5H)-dione] it is “A (“A”: <10 nM)”.
The entry for `C[C@@H]1Cc2c([nH]c3ccccc23)[C@@H](c2cnc(N3CCC(CN4CCC(N5Cc6cc7c(cc6C5)C(=O)N(C5CCC(=O)NC5=O)C7=O)CC4)CC3)nc2)N1CC(F)F` (stereo partly drawn) [Compound B223, 6-(1-((1-(5-((1R,3R)-2-(2,2-difluoroethyl)-3-methyl-2,3,4,9-tetrahydro-1H-pyrido[3,4-b]indol-1-yl)pyrimidin-2-yl)piperidin-4-yl)methyl)piperidin-4-yl)-2-(2,6-dioxopiperidin-3-yl)-6,7-dihydropyrrolo[3,4-f]isoindole-1,3(2H,5H)-dione] is “B (“B”: 10-100 nM)”; for `C[C@@H]1Cc2c([nH]c3ccccc23)[C@@H](c2ccc(N3CCC4(CC3)CN(C(=O)CN3Cc5cc6c(cc5C3)C(=O)N(C3CCC(=O)NC3=O)C6=O)C4)cc2)N1CC(F)F` (stereo partly drawn) [Compound B224, 6-(2-(7-(4-((1R,3R)-2-(2,2-difluoroethyl)-3-methyl-2,3,4,9-tetrahydro-1H-pyrido[3,4-b]indol-1-yl)phenyl)-2,7-diazaspiro[3.5]nonan-2-yl)-2-oxoethyl)-2-(2,6-dioxopiperidin-3-yl)-6,7-dihydropyrrolo[3,4-f]isoindole-1,3(2H,5H)-dione] it is “B (“B”: 10-100 nM)”.
On to `C[C@@H]1Cc2c([nH]c3ccccc23)[C@@H](c2ccc(N3CCC(C(=O)N4CCC(N5Cc6cc7c(cc6C5)C(=O)N(C5CCC(=O)NC5=O)C7=O)CC4)CC3)cc2)N1CC(F)F` (stereo partly drawn) [Compound B225, 6-(1-(1-(4-((1R,3R)-2-(2,2-difluoroethyl)-3-methyl-2,3,4,9-tetrahydro-1H-pyrido[3,4-b]indol-1-yl)phenyl)piperidine-4-carbonyl)piperidin-4-yl)-2-(2,6-dioxopiperidin-3-yl)-6,7-dihydropyrrolo[3,4-f]isoindole-1,3(2H,5H)-dione], for which the “Traditional Western Degradation Potency” value was “B (“B”: 10-100 nM)”.
For `C[C@@H]1Cc2c([nH]c3ccccc23)[C@@H](c2ccc(N3CCC(CN4CCC(N5Cc6cc7c(cc6C5)C(=O)N(C5CCC(=O)NC5=O)C7=O)CC4)CC3)cc2)N1CC(F)F` (stereo partly drawn) [Compound B226, 6-(1-((1-(4-((1R,3R)-2-(2,2-difluoroethyl)-3-methyl-2,3,4,9-tetrahydro-1H-pyrido[3,4-b]indol-1-yl)phenyl)piperidin-4-yl)methyl)piperidin-4-yl)-2-(2,6-dioxopiperidin-3-yl)-6,7-dihydropyrrolo[3,4-f]isoindole-1,3(2H,5H)-dione] the value was “B (“B”: 10-100 nM)”; for `C[C@@H]1Cc2c([nH]c3ccccc23)[C@@H](c2ccc(N3CCC4(CCN(C(=O)CN5Cc6cc7c(cc6C5)C(=O)N(C5CCC(=O)NC5=O)C7=O)CC4)CC3)cc2)N1CC(F)F` (stereo partly drawn) [Compound B227, 6-(2-(9-(4-((1R,3R)-2-(2,2-difluoroethyl)-3-methyl-2,3,4,9-tetrahydro-1H-pyrido[3,4-b]indol-1-yl)phenyl)-3,9-diazaspiro[5.5]undecan-3-yl)-2-oxoethyl)-2-(2,6-dioxopiperidin-3-yl)-6,7-dihydropyrrolo[3,4-f]isoindole-1,3(2H,5H)-dione], “B (“B”: 10-100 nM)”; for `C[C@@H]1Cc2c([nH]c3ccccc23)[C@@H](c2ccc(N3CCC4(CCN(C(=O)CN5Cc6cc7c(cc6C5)C(=O)N(C5CCC(=O)NC5=O)C7=O)CC4)CC3)cn2)N1CC(F)F` (stereo partly drawn) [Compound B228, 6-(2-(9-(6-((1S,3R)-2-(2,2-difluoroethyl)-3-methyl-2,3,4,9-tetrahydro-1H-pyrido[3,4-b]indol-1-yl)pyridin-3-yl)-3,9-diazaspiro[5.5]undecan-3-yl)-2-oxoethyl)-2-(2,6-dioxopiperidin-3-yl)-6,7-dihydropyrrolo[3,4-f]isoindole-1,3(2H,5H)-dione], “C (“C”: >100 nM)”.
In the case of `C[C@@H]1Cc2c([nH]c3ccccc23)[C@@H](c2ccc(N3CCC4(CCN(C(=O)CN5Cc6cc7c(cc6C5)C(=O)N(C5CCC(=O)NC5=O)C7=O)CC4)CC3)nc2)N1CC(F)F` (stereo partly drawn) [Compound B229, 6-(2-(9-(5-((1R,3R)-2-(2,2-difluoroethyl)-3-methyl-2,3,4,9-tetrahydro-1H-pyrido[3,4-b]indol-1-yl)pyridin-2-yl)-3,9-diazaspiro[5.5]undecan-3-yl)-2-oxoethyl)-2-(2,6-dioxopiperidin-3-yl)-6,7-dihydropyrrolo[3,4-f]isoindole-1,3(2H,5H)-dione], the “Traditional Western Degradation Potency” value is given as “B (“B”: 10-100 nM)”.
The entry for `C[C@@H]1Cc2c([nH]c3ccccc23)[C@@H](c2ccc(N3CCC4(CCN(CC(=O)N5Cc6cc7c(cc6C5)C(=O)N(C5CCC(=O)NC5=O)C7=O)CC4)CC3)cn2)N1CC(F)F` (stereo partly drawn) [Compound B230, 6-(2-(9-(6-((1S,3R)-2-(2,2-difluoroethyl)-3-methyl-2,3,4,9-tetrahydro-1H-pyrido[3,4-b]indol-1-yl)pyridin-3-yl)-3,9-diazaspiro[5.5]undecan-3-yl)acetyl)-2-(2,6-dioxopiperidin-3-yl)-6,7-dihydropyrrolo[3,4-f]isoindole-1,3(2H,5H)-dione] is “C (“C”: >100 nM)”; for `C[C@@H]1Cc2c([nH]c3ccccc23)[C@@H](c2ccc(N3CCC4(CCN(C(=O)CN5Cc6cc7c(cc6C5)C(=O)N(C5CCC(=O)NC5=O)C7=O)CC4)CC3)cc2F)N1CC(F)F` (stereo partly drawn) [Compound B231, 6-(2-(9-(4-((1R,3R)-2-(2,2-difluoroethyl)-3-methyl-2,3,4,9-tetrahydro-1H-pyrido[3,4-b]indol-1-yl)-3-fluorophenyl)-3,9-diazaspiro[5.5]undecan-3-yl)-2-oxoethyl)-2-(2,6-dioxopiperidin-3-yl)-6,7-dihydropyrrolo[3,4-f]isoindole-1,3(2H,5H)-dione] it is “B (“B”: 10-100 nM)”; for `C[C@@H]1Cc2c([nH]c3ccccc23)[C@@H](c2ccc(N3CCC(C(=O)N4CCC(N5Cc6cc7c(cc6C5)C(=O)N(C5CCC(=O)NC5=O)C7=O)CC4)CC3)cc2F)N1CC(F)F` (stereo partly drawn) [Compound B232, 6-(1-(1-(4-((1R,3R)-2-(2,2-difluoroethyl)-3-methyl-2,3,4,9-tetrahydro-1H-pyrido[3,4-b]indol-1-yl)-3-fluorophenyl)piperidine-4-carbonyl)piperidin-4-yl)-2-(2,6-dioxopiperidin-3-yl)-6,7-dihydropyrrolo[3,4-f]isoindole-1,3(2H,5H)-dione] it is “A (“A”: <10 nM)”.
Turning to `C[C@@H]1Cc2c([nH]c3ccccc23)[C@@H](c2ccc(C3CCC(C(=O)N4CCC(N5Cc6cc7c(cc6C5)C(=O)N(C5CCC(=O)NC5=O)C7=O)CC4)CC3)cc2F)N1CC(F)F` (stereo partly drawn) [Compound B233, 6-(1-(4-(4-((1R,3R)-2-(2,2-difluoroethyl)-3-methyl-2,3,4,9-tetrahydro-1H-pyrido[3,4-b]indol-1-yl)-3-fluorophenyl)cyclohexane-1-carbonyl)piperidin-4-yl)-2-(2,6-dioxopiperidin-3-yl)-6,7-dihydropyrrolo[3,4-f]isoindole-1,3(2H,5H)-dione], the “Traditional Western Degradation Potency” value is listed as “B (“B”: 10-100 nM)”.
For `C[C@@H]1Cc2c([nH]c3ccccc23)[C@@H](c2ccc(C3CCC(C(=O)N4CCC(N5Cc6cc7c(cc6C5)C(=O)N(C5CCC(=O)NC5=O)C7=O)CC4)CC3)cn2)N1CC(F)F` (stereo partly drawn) [Compound B234, 6-(1-(4-(6-((1S,3R)-2-(2,2-difluoroethyl)-3-methyl-2,3,4,9-tetrahydro-1H-pyrido[3,4-b]indol-1-yl)pyridin-3-yl)cyclohexane-1-carbonyl)piperidin-4-yl)-2-(2,6-dioxopiperidin-3-yl)-6,7-dihydropyrrolo[3,4-f]isoindole-1,3(2H,5H)-dione] the value was “C (“C”: >100 nM)”.

These data come from patent publication US20260007681A1, “INDOLE DERIVATIVES AS ESTROGEN RECEPTOR DEGRADERS” (REGENTS OF THE UNIVERSITY OF MICHIGAN, priority 2022, published 2026).
